Measurements: the NIST ThermoML archive (doi:10.1016/j.jct.2010.02.015)
Values joined by “and” are separate entries in the source; they are usually repeats but may differ in a detail not shown here. Equal values may be shown once.

Conditions: Gas, Buoyancy - hydrostatic balance with magnetic suspension - two sinkers

[He] [helium]
Conditions | mass density
323.15 K, 4247.2 kPa | 6.2127 kg/m3
323.15 K, 4247.3 kPa | 6.2128 kg/m3 and 6.2127 kg/m3
323.15 K, 4851.3 kPa | 7.0783 kg/m3 and 7.0787 kg/m3 and 7.0785 kg/m3
323.15 K, 4851.4 kPa | 7.0788 kg/m3
323.15 K, 7550.9 kPa | 10.893 kg/m3
323.15 K, 7551 kPa | 10.8932 kg/m3 and 10.8928 kg/m3 and 10.8929 kg/m3
323.15 K, 7816.5 kPa | 11.2639 kg/m3
323.15 K, 7816.6 kPa | 11.264 kg/m3 and 11.2637 kg/m3
323.15 K, 11516 kPa | 16.3444 kg/m3 and 16.3445 kg/m3
323.15 K, 11561 kPa | 16.4063 kg/m3 and 16.4048 kg/m3
323.15 K, 15406 kPa | 21.5262 kg/m3 and 21.5263 kg/m3 and 21.5265 kg/m3
323.15 K, 15457 kPa | 21.5934 kg/m3 and 21.5932 kg/m3
323.15 K, 15458 kPa | 21.5942 kg/m3
323.15 K, 18569 kPa | 25.6255 kg/m3 and 25.6259 kg/m3
323.15 K, 18570 kPa | 25.6261 kg/m3 and 25.6263 kg/m3
323.15 K, 19211 kPa | 26.4456 kg/m3
323.15 K, 19212 kPa | 26.4466 kg/m3 and 26.446 kg/m3
323.15 K, 24300 kPa | 32.8067 kg/m3
323.15 K, 24301 kPa | 32.8072 kg/m3 and 32.807 kg/m3 and 32.8069 kg/m3
323.15 K, 25287 kPa | 34.0129 kg/m3 and 34.0124 kg/m3
323.15 K, 25288 kPa | 34.0134 kg/m3
323.15 K, 25289 kPa | 34.0147 kg/m3
323.15 K, 30738 kPa | 40.5213 kg/m3
323.15 K, 30739 kPa | 40.522 kg/m3
323.15 K, 30740 kPa | 40.5237 kg/m3 and 40.5227 kg/m3
323.15 K, 32137 kPa | 42.1508 kg/m3
323.15 K, 32138 kPa | 42.1518 kg/m3 and 42.1514 kg/m3
323.15 K, 32139 kPa | 42.1524 kg/m3
323.15 K, 37733 kPa | 48.5152 kg/m3
323.15 K, 37734 kPa | 48.5163 kg/m3
323.15 K, 37735 kPa | 48.5178 kg/m3
323.15 K, 37736 kPa | 48.5195 kg/m3
323.15 K, 37959 kPa | 48.7675 kg/m3
323.15 K, 37960 kPa | 48.7683 kg/m3 and 48.7679 kg/m3
323.15 K, 37961 kPa | 48.7698 kg/m3
350 K, 4685.1 kPa | 6.3268 kg/m3 and 6.3265 kg/m3
350 K, 4685.2 kPa | 6.3269 kg/m3 and 6.3267 kg/m3
350 K, 7452.5 kPa | 9.9569 kg/m3 and 9.9566 kg/m3 and 9.9568 kg/m3
350 K, 11158 kPa | 14.7003 kg/m3 and 14.7004 kg/m3 and 14.7008 kg/m3
350 K, 15078 kPa | 19.5787 kg/m3 and 19.579 kg/m3 and 19.5788 kg/m3
350 K, 15079 kPa | 19.5795 kg/m3
350 K, 18991 kPa | 24.3127 kg/m3 and 24.3128 kg/m3
350 K, 18992 kPa | 24.313 kg/m3 and 24.3135 kg/m3
350 K, 24052 kPa | 30.2468 kg/m3 [middle of 4 runs]
350 K, 30655 kPa | 37.6887 kg/m3
350 K, 30656 kPa | 37.6893 kg/m3 and 37.6888 kg/m3
350 K, 30658 kPa | 37.6913 kg/m3
350 K, 37804 kPa | 45.3924 kg/m3
350 K, 37805 kPa | 45.3931 kg/m3
350 K, 37806 kPa | 45.3936 kg/m3 and 45.3946 kg/m3
375 K, 4669.4 kPa | 5.8931 kg/m3 and 5.893 kg/m3 and 5.8932 kg/m3
375 K, 7673.3 kPa | 9.581 kg/m3 and 9.5809 kg/m3
375 K, 7673.4 kPa | 9.5815 kg/m3 and 9.5814 kg/m3
375 K, 7673.5 kPa | 9.5816 kg/m3
375 K, 11339 kPa | 13.9783 kg/m3 and 13.9779 kg/m3 and 13.9781 kg/m3
375 K, 14992 kPa | 18.2509 kg/m3 and 18.2507 kg/m3
375 K, 14993 kPa | 18.2512 kg/m3 and 18.2509 kg/m3
375 K, 19144 kPa | 22.9816 kg/m3 and 22.9811 kg/m3 and 22.981 kg/m3
375 K, 19145 kPa | 22.9817 kg/m3 and 22.9816 kg/m3
375 K, 24590 kPa | 28.996 kg/m3
375 K, 24591 kPa | 28.9965 kg/m3 and 28.9964 kg/m3 and 28.9966 kg/m3
375 K, 30460 kPa | 35.251 kg/m3
375 K, 30461 kPa | 35.2518 kg/m3 and 35.2512 kg/m3
375 K, 30462 kPa | 35.2524 kg/m3
375 K, 30463 kPa | 35.2534 kg/m3
375 K, 37969 kPa | 42.9318 kg/m3
375 K, 37970 kPa | 42.9322 kg/m3
375 K, 37971 kPa | 42.9332 kg/m3
375 K, 37972 kPa | 42.9339 kg/m3
375 K, 37973 kPa | 42.9352 kg/m3
400 K, 5058.3 kPa | 5.9844 kg/m3 [middle of 4 runs]
400 K, 7571.3 kPa | 8.8831 kg/m3 and 8.8829 kg/m3
400 K, 7571.4 kPa | 8.883 kg/m3 and 8.8833 kg/m3
400 K, 11460 kPa | 13.2766 kg/m3 and 13.2769 kg/m3 and 13.2767 kg/m3
400 K, 14777 kPa | 16.9377 kg/m3 [middle of 4 runs]
400 K, 19142 kPa | 21.6423 kg/m3 and 21.6418 kg/m3 and 21.6416 kg/m3
400 K, 19143 kPa | 21.6425 kg/m3
400 K, 23882 kPa | 26.6105 kg/m3
400 K, 23883 kPa | 26.6111 kg/m3
400 K, 23884 kPa | 26.6117 kg/m3 and 26.6114 kg/m3
400 K, 29989 kPa | 32.8083 kg/m3
400 K, 29990 kPa | 32.8093 kg/m3 and 32.8086 kg/m3
400 K, 29991 kPa | 32.8101 kg/m3
400 K, 37939 kPa | 40.5581 kg/m3
400 K, 37940 kPa | 40.5595 kg/m3
400 K, 37941 kPa | 40.56 kg/m3
400 K, 37942 kPa | 40.5606 kg/m3
425 K, 7875.4 kPa | 8.7027 kg/m3
425 K, 7875.6 kPa | 8.703 kg/m3
425 K, 7875.7 kPa | 8.703 kg/m3
425 K, 7875.8 kPa | 8.7031 kg/m3
425 K, 11516 kPa | 12.586 kg/m3 and 12.5859 kg/m3
425 K, 11517 kPa | 12.5867 kg/m3 and 12.5863 kg/m3
425 K, 15540 kPa | 16.7803 kg/m3
425 K, 15541 kPa | 16.7806 kg/m3 and 16.7809 kg/m3
425 K, 19133 kPa | 20.4427 kg/m3 and 20.4422 kg/m3
425 K, 19134 kPa | 20.4431 kg/m3
425 K, 25118 kPa | 26.3791 kg/m3
425 K, 25119 kPa | 26.3797 kg/m3
425 K, 25120 kPa | 26.3801 kg/m3 and 26.3808 kg/m3
425 K, 31604 kPa | 32.5927 kg/m3
425 K, 31605 kPa | 32.5929 kg/m3
425 K, 31606 kPa | 32.5939 kg/m3
425 K, 31607 kPa | 32.5953 kg/m3
425 K, 37906 kPa | 38.4268 kg/m3
425 K, 37908 kPa | 38.4278 kg/m3
425 K, 37909 kPa | 38.4293 kg/m3
425 K, 37913 kPa | 38.4326 kg/m3
450 K, 4775.3 kPa | 5.0371 kg/m3
450 K, 4775.4 kPa | 5.0373 kg/m3 and 5.0374 kg/m3
450 K, 7655.9 kPa | 8.0083 kg/m3
450 K, 7656 kPa | 8.0084 kg/m3 and 8.0085 kg/m3
450 K, 11907 kPa | 12.3041 kg/m3 [middle of 4 runs]
450 K, 15358 kPa | 15.7171 kg/m3 [middle of 4 runs]
450 K, 18965 kPa | 19.2155 kg/m3
450 K, 18966 kPa | 19.2158 kg/m3 and 19.2164 kg/m3 and 19.2154 kg/m3
450 K, 24940 kPa | 24.8633 kg/m3 and 24.8624 kg/m3
450 K, 24941 kPa | 24.8636 kg/m3
450 K, 24943 kPa | 24.8658 kg/m3
450 K, 31394 kPa | 30.7672 kg/m3
450 K, 31395 kPa | 30.7683 kg/m3
450 K, 31396 kPa | 30.7693 kg/m3
450 K, 31398 kPa | 30.7705 kg/m3
450 K, 37608 kPa | 36.2728 kg/m3
450 K, 37610 kPa | 36.274 kg/m3
450 K, 37611 kPa | 36.2757 kg/m3
450 K, 37613 kPa | 36.2772 kg/m3
475 K, 4812.4 kPa | 4.813 kg/m3 and 4.8133 kg/m3 and 4.8131 kg/m3
475 K, 7937.7 kPa | 7.8707 kg/m3
475 K, 7937.9 kPa | 7.871 kg/m3
475 K, 7938 kPa | 7.8709 kg/m3
475 K, 11474 kPa | 11.2698 kg/m3 and 11.2694 kg/m3
475 K, 11475 kPa | 11.2697 kg/m3 and 11.2696 kg/m3
475 K, 15102 kPa | 14.6905 kg/m3 and 14.6903 kg/m3 and 14.69 kg/m3
475 K, 15103 kPa | 14.6908 kg/m3
475 K, 18995 kPa | 18.29 kg/m3 and 18.2901 kg/m3 and 18.2895 kg/m3
475 K, 18996 kPa | 18.2908 kg/m3
475 K, 25698 kPa | 24.3237 kg/m3 and 24.3233 kg/m3
475 K, 25699 kPa | 24.3246 kg/m3
475 K, 31116 kPa | 29.0563 kg/m3
475 K, 31118 kPa | 29.0576 kg/m3
475 K, 31119 kPa | 29.0583 kg/m3
475 K, 31122 kPa | 29.0604 kg/m3
475 K, 37990 kPa | 34.8852 kg/m3
475 K, 37992 kPa | 34.8873 kg/m3
475 K, 37994 kPa | 34.8888 kg/m3
475 K, 37996 kPa | 34.891 kg/m3
499.99 K, 37868 kPa | 33.2206 kg/m3
500 K, 4928 kPa | 4.6849 kg/m3 and 4.6846 kg/m3 and 4.685 kg/m3
500 K, 7887.1 kPa | 7.4404 kg/m3 and 7.4403 kg/m3
500 K, 7887.3 kPa | 7.4406 kg/m3
500 K, 11580 kPa | 10.8213 kg/m3 and 10.8221 kg/m3 and 10.8212 kg/m3
500 K, 11581 kPa | 10.8215 kg/m3
500 K, 15421 kPa | 14.2721 kg/m3 and 14.2719 kg/m3
500 K, 15422 kPa | 14.2732 kg/m3 and 14.2727 kg/m3
500 K, 19581 kPa | 17.9371 kg/m3 and 17.9369 kg/m3
500 K, 19583 kPa | 17.9388 kg/m3
500 K, 25162 kPa | 22.7413 kg/m3
500 K, 25163 kPa | 22.7419 kg/m3
500 K, 25166 kPa | 22.7445 kg/m3
500 K, 30651 kPa | 27.3437 kg/m3
500 K, 30652 kPa | 27.3446 kg/m3
500 K, 30653 kPa | 27.3454 kg/m3
500 K, 30654 kPa | 27.3459 kg/m3
500 K, 37864 kPa | 33.2185 kg/m3
500 K, 37865 kPa | 33.2203 kg/m3
500 K, 37870 kPa | 33.2239 kg/m3
